Results reported in patent publication US9926261B2, “Bacterial efflux pump inhibitors” (Rutgers, The State University of New Jersey, priority 2015, dated 2018).

tested on: Escherichia coli W4573; assay: Test A. Minimum Inhibitory Concentration (MIC)-based assay for efflux pump inhibition (enhancement of minocycline MIC); type: cell-based; conditions: ratio of minocycline MIC in absence of test compound to minocycline MIC in presence of test compound, test compound 12.5 μg/mL, CAMH broth, 24 hours at 37° C.
Description: Test A. Minimum Inhibitory Concentration (MIC)-Based Assay for Efflux Pump Inhibition:
MIC-based assays were used to evaluate the impact of potential efflux pump inhibiting (EPI) compounds on the MIC of minocycline, an antibiotic known to be a substrate for Gram-negative bacterial efflux pumps. The assays were conducted in accordance with Clinical and Laboratory Standards Institute (CLSI) guidelines for broth microdilution, with the modification that assays were conducted in the presence and absence of the test EPI compounds. When present, the EPI compounds were added to cation-adjusted Mueller-Hinton (CAMH) broth (Becton, Dickinson and Co., Franklin Lakes, N.J.) at a final concentration of 12.5 μg/mL.
Log-phase Gram-negative bacteria were added to 96-well microtiter plates (at 5×10^5 colony forming units (CFU) per mL) containing two-fold serial dilutions of minocycline in CAMH broth either in the absence or presence of the test EPI compounds. In all assays, each serial dilution of minocycline was present in duplicate. The final volume in each well was 0.1 mL, and the microtiter plates were incubated aerobically for 24 hours at 37° C. Bacterial growth was then monitored by measuring the optical density (OD) at 600 nm using a VersaMax® plate reader (Molecular Devices, Inc., Sunnyvale, Calif.), with the MIC being defined as the lowest compound concentration at which growth was ≥90% inhibited compared to antibiotic-free control. The following Gram-negative bacterial strains were included in these assays: • Escherichia coli W4573, ATCC 25922, and ATCC BAA-201 (an extended spectrum β-lactamase (ESBL)-producing strain that expresses the TEM-3 β-lactamase). • Klebsiella pneumoniae ATCC 13883 and ATCC 700603 (an ESBL-producing strain that expresses the SHV-18 β-lactamase). • Pseudomonas aeruginosa ATCC 27853. The efflux pump mutant E. coli strain N43 (acrA1) was used as a positive control.
The enhancement is the ratio of the minocycline MIC in the absence of test compound to the minocycline MIC in the presence of test compound.

Row | SMILES | Enhancement
1 | Cl.Cl.NCC[C@H](N)CNC(=O)c1cc(C(F)(F)F)cc(C(F)(F)F)c1 [Example 9, (S)-4-(3,5-bis(trifluoromethyl)benzamido)butane-1,3-diaminium chloride] | 16
2 | Cl.Cl.NCCC[C@@H](N)CNC(=O)c1cc(C(F)(F)F)cc(C(F)(F)F)c1 [Example 8, (R)-5-(3,5-bis(trifluoromethyl)benzamido)pentane-1,4-diaminium chloride] | 8
3 | NC[C@@H](N)CCCNC(=O)c1cc(-c2ccccc2)cc(-c2ccccc2)c1 [Example 12, (S)-5-([1,1′:3′,1″-terphenyl]-5′-carboxamido)pentane-1,2-diaminium chloride] | 2
4 | Cl.Cl.NCCC[C@H](N)CNC(=O)c1cc(-c2ccc(F)cc2)cc(-c2ccc(F)cc2)c1 [Example 13, (S)-5-(4,4″-difluoro-[1,1′:3′,1″-terphenyl]-5′-carboxamido)pentane-1,4-diaminium chloride] | 128
5 | Cl.Cl.NCCC[C@H](N)CNC(=O)c1ccc(C(F)(F)F)cc1 [Example 3, (S)-5-(4-(trifluoromethyl)benzamido)pentane-1,4-diaminium chloride] | 4
6 | Cl.Cl.NCCC[C@H](N)CNC(=O)c1ccc(C(F)(F)F)c(C(F)(F)F)c1 [Example 6, (S)-5-(3,4-Bis(trifluoromethyl)benzamido)pentane-1,4-diaminium chloride] | 32
7 | Cl.Cl.NCCC[C@H](N)CNC(=O)c1cc(-c2ccccc2)cc(-c2ccccc2)c1 [Example 11, (S)-5-([1,1′:3′,1″-terphenyl]-5′-carboxamido)pentane-1,4-diaminium chloride] | 128
8 | CC(C)(C)c1cc(C(=O)NC[C@@H](N)CCCN)cc(C(C)(C)C)c1.Cl.Cl [Example 10, (S)-5-(3,5-di-tert-butylbenzamido)pentane-1,4-diaminium chloride] | 64
9 | Cl.Cl.NCCC[C@H](N)CNC(=O)c1cc(C(F)(F)F)ccc1C(F)(F)F [Example 5, (S)-5-(2,5-bis(trifluoromethyl)benzamido)pentane-1,4-diaminium chloride] | 2
10 | Cl.Cl.NCCC[C@H](N)CNC(=O)c1ccccc1-c1ccccc1 [Example 4, (S)-5-([1,1′-biphenyl]-2-carboxamido)pentane-1,4-diaminium chloride] | 2
11 | Cl.Cl.NCCC[C@H](N)CNC(=O)c1ccccc1C(F)(F)F [Example 1, (S)-5-(2-(trifluoromethyl)benzamido)pentane-1,4-diaminium chloride] | 1
12 | Cl.Cl.NCCC[C@H](N)CNC(=O)c1cccc(C(F)(F)F)c1 [Example 2, (S)-5-(3-(trifluoromethyl)benzamido)pentane-1,4-diaminium chloride] | 2
13 | Cl.Cl.NCCC[C@H](N)CNC(=O)c1cc(C(F)(F)F)cc(C(F)(F)F)c1 [Example 7, (S)-5-(3,5-bis(trifluoromethyl)benzamido)pentane-1,4-diaminium chloride] | 16
